Source: ChEMBL document CHEMBL1255427, “Lack of a clinically relevant effect of an antacid on the pharmacokinetics of lersivirine” (Antimicrob Agents Chemother, 2010)

Assays:
[1] = AUC (infinity) in healthy human plasma at 750 mg by HPLC-tandem mass spectrometry method; format: ADME, organism-based; parameters: dose 750 mg, time infinity
[2] = Cmax in healthy human plasma at 750 mg after 24 hrs coadministered with 20 ml of antacid by HPLC-tandem mass spectrometry method; format: ADME, organism-based; parameters: dose 750 mg
[3] = organism: Homo sapiens; experiment: Toxicity in healthy human assessed as gastrointestinal tract related toxicity at 750 mg; format: organism-based; conditions: in vivo
[4] = organism: Homo sapiens; experiment: Toxicity in healthy human assessed as serious adverse events at 750 mg; format: organism-based; conditions: in vivo
[5] = AUC (infinity) in healthy human plasma at 750 mg coadministered with 20 ml of antacid by HPLC-tandem mass spectrometry method; format: ADME, organism-based; parameters: dose 750 mg, time infinity
[6] = organism: Homo sapiens; experiment: Plasma concentration in healthy human plasma at 750 mg by HPLC-tandem mass spectrometry method; format: ADME, organism-based; conditions: in vivo
[7] = test system: Homo sapiens; experiment: Toxicity in healthy human assessed as death at 750 mg coadministered with 20 ml of antacid; format: organism-based; conditions: in vivo
[8] = Cmax in healthy human plasma at 750 mg after 24 hrs by HPLC-tandem mass spectrometry method; format: ADME, organism-based; parameters: dose 750 mg
[9] = test system: Homo sapiens; experiment: Toxicity in healthy human assessed as gastrointestinal tract related toxicity at 750 mg coadministered with 20 ml of antacid; format: organism-based; conditions: in vivo
[10] = Half life in healthy human plasma at 750 mg by HPLC-tandem mass spectrometry method; format: ADME, organism-based
[11] = Tmax in healthy human plasma at 750 mg by HPLC-tandem mass spectrometry method; format: ADME, organism-based
[12] = test system: Homo sapiens; experiment: Plasma concentration in healthy human plasma at 750 mg coadministered with 20 ml of antacid by HPLC-tandem mass spectrometry method; format: ADME, organism-based; conditions: in vivo
[13] = test system: Homo sapiens; experiment: Toxicity in healthy human assessed as serious adverse events at 750 mg coadministered with 20 ml of antacid; format: organism-based; conditions: in vivo
[14] = Tmax in healthy human plasma at 750 mg coadministered with 20 ml of antacid by HPLC-tandem mass spectrometry method; format: ADME, organism-based
[15] = Half life in healthy human plasma at 750 mg coadministered with 20 ml of antacid by HPLC-tandem mass spectrometry method; format: ADME, organism-based
[16] = organism: Homo sapiens; experiment: Toxicity in healthy human assessed as death at 750 mg; format: organism-based; conditions: in vivo

SMILES: CCc1nn(CCO)c(CC)c1Oc1cc(C#N)cc(C#N)c1 [LERSIVIRINE]
- AUC(0-inf) [1]: 11000 ng·h/mL
- Cmax [2]: 1450 ng/mL
- Activity [3]: Toxic
- Activity [4]: Non-toxic
- AUC(0-inf) [5]: 11200 ng·h/mL
- Cp [6]: 83.41 ng/mL
- Activity [7]: Non-toxic
- Cmax [8]: 1520 ng/mL
- Activity [9]: Toxic
- half-life [10]: 415 min
- Tmax [11]: 5 h
- Cp [12]: 64.41 ng/mL
- Activity [13]: Non-toxic
- Tmax [14]: 2 h
- half-life [15]: 373 min
- Activity [16]: Non-toxic
